According to US10231453B2, “5-substituted imidazole derivatives” (BAYER CROPSCIENCE AKTIENGESELLSCHAFT, priority 2015, dated 2019):
Where two headings read alike, the source gives them in different places.

How the values were obtained:
Pyricularia oryzae = experiment: whole plant or invertebrate; assay type: in vivo; conditions: 192 h, read-out: efficacy
Alternaria solani = experiment: In vivo preventive Alternaria test (tomatoes), Example H; conditions: 72 h, 100 ppm of active ingredient, preventive spray, evaluated 3 days after inoculation, read-out: efficacy
Phakopsora pachyrhizi = experiment: In vivo preventive Phakopsora test (soybeans), Example I; conditions: 168 h, 100 ppm of active ingredient, preventive spray, evaluated 7 days after inoculation, read-out: efficacy
Pyrenophora teres = experiment: In vivo preventive test on Pyrenophora teres (net blotch on barley), Examples D, Q2 and R4; conditions: Pyrenophora teres, 336 h; for pest or weed control at 100 ppm: Example R4, rate of application 100 ppm
[1] = test system: Blumeria graminis fsp. hordei; experiment: In vivo preventive Blumeria test (barley), Example K; conditions: 168 h, 500 ppm of active ingredient, preventive spray, evaluated 7 days after inoculation, read-out: efficacy
Excerpt: After the spray coating has been dried, the plants are dusted with spores of Blumeria graminis fsp. hordei.

Leptosphaeria nodorum = experiment: In vivo preventive Leptosphaeria nodorum test (wheat), Example N; conditions: Parastagonospora nodorum, 192 h, 500 ppm of active ingredient, preventive spray, evaluated 8 days after inoculation, read-out: efficacy
Excerpt: After the spray coating has been dried, the plants are sprayed with a spore suspension of Leptosphaeria nodorum.

[2] = test system: Fusarium nivale (var. majus); experiment: In vivo preventive Fusarium nivale (var. majus) test (wheat), Example O; conditions: Microdochium nivale, 120 h, 500 ppm of active ingredient, preventive spray, evaluated 5 days after inoculation, read-out: efficacy
Excerpt: After the spray coating has been dried, the plants are slightly injured by using a sandblast and afterwards they are sprayed with a conidia suspension of Fusarium nivale (var. majus).

Uromyces appendiculatus = experiment: In vivo preventive test on Uromyces appendiculatus (bean rust), Examples G and R7; conditions: 264 h, preventive spray, evaluated 11 days after inoculation
Botrytis cinerea = experiment: In vivo preventive test on Botrytis cinerea (grey mould) on gherkin, Examples B, Q1 and R2; conditions: Botrytis cinerea; for pest or weed control at 100 ppm: Example R2, rate of application 100 ppm
Septoria tritici = experiment: In vivo preventive test on Septoria tritici (leaf spot on wheat), Examples E, Q3 and R5; conditions: Zymoseptoria tritici, 576 h, preventive spray, evaluated 24 days after inoculation
Fusarium culmorum = experiment: In vivo preventive Fusarium culmorum test (wheat), Example L; conditions: 120 h, 500 ppm of active ingredient, preventive spray, evaluated 5 days after inoculation, read-out: efficacy
Experimental: After the spray coating has been dried, the plants are slightly injured by using a sandblast and afterwards they are sprayed with a conidia suspension of Fusarium culmorum.
The test is evaluated 5 days after the inoculation.

Puccinia recondita = experiment: In vivo preventive test on Puccinia recondita (brown rust on wheat), Examples C and R3; conditions: Puccinia recondita, 264 h, preventive spray, evaluated 11 days after inoculation
Venturia inaequalis = experiment: In vivo preventive Venturia test (apples), Example J; conditions: 240 h, read-out: efficacy
Experimental: After the spray coating has dried on, the plants are inoculated with an aqueous conidia suspension of the causal agent of apple scab (Venturia inaequalis) and then remain for 1 day in an incubation cabinet at approximately 20° C. and a relative atmospheric humidity of 100%.
The plants are then placed in a greenhouse at approximately 21° C. and a relative atmospheric humidity of approximately 90%.
The test is evaluated 10 days after the inoculation.

[3] = Measurement of LogP values by HPLC on reversed phase columns (EEC directive 79/831 Annex V.A8); assay type: physicochemical; conditions: acidic range, Table 1
Experimental: Measurement of Log P values was performed as outlined above.

Sphaerotheca fuliginea = experiment: In vivo preventive test on Sphaerotheca fuliginea (powdery mildew on cucurbits), Examples F and R6; conditions: Podosphaera fuliginea, 360 h, preventive spray, evaluated 15 days after inoculation
Alternaria brassicae = experiment: In vivo preventive test on Alternaria brassicae (leaf spot on radish), Examples A and R1; conditions: Alternaria brassicae, 144 h
Fusarium graminearum = experiment: whole plant or invertebrate; assay type: in vivo; conditions: in Hordeum vulgare, 120 h, read-out: efficacy
[4] = 500 ppm of active ingredient, preventive spray, evaluated 14 days after inoculation, read-out: efficacy
[5] = Example R4, rate of application 500 ppm, read-out: Efficacy in %
[6] = 500 ppm of active ingredient, bean, read-out: efficacy
[7] = Example R7, bean, read-out: Efficacy in %
[8] = Example R7, bean, 500 ppm, read-out: Efficacy in %
[9] = 500 ppm of active ingredient, preventive spray, evaluated 4 to 5 days after inoculation, read-out: efficacy
[10] = Example R2, rate of application 500 ppm, read-out: Efficacy in %
[11] = 500 ppm of active ingredient, wheat, read-out: efficacy
[12] = Example R5, wheat, read-out: Efficacy in %
[13] = Example R5, wheat, 500 ppm, read-out: Efficacy in %
[14] = Example R3, wheat, read-out: Efficacy in %
[15] = Example R3, wheat, 500 ppm, read-out: Efficacy in %
[16] = method [a]: LC-UV, 0.1% formic acid in water and acetonitrile as eluent
[17] = 500 ppm of active ingredient, gherkin, read-out: efficacy
[18] = Example R6, gherkin, read-out: Efficacy in %
[19] = Example R6, gherkin, 500 ppm, read-out: Efficacy in %
[20] = 500 ppm of active ingredient, preventive spray, evaluated 6 days after inoculation, read-out: efficacy

Row | Structure (SMILES) | pest or weed control at 500 ppm (Pyricularia oryzae) | pest or weed control at 100 ppm (Alternaria solani) | pest or weed control at 100 ppm (Phakopsora pachyrhizi) | pest or weed control at 500 ppm (Pyrenophora teres; [4]) | pest or weed control at 500 ppm [1] | pest or weed control at 500 ppm (Leptosphaeria nodorum) | pest or weed control at 500 ppm [2] | pest or weed control at 500 ppm (Uromyces appendiculatus; [6]) | pest or weed control at 500 ppm (Botrytis cinerea; [9]) | pest or weed control at 500 ppm (Septoria tritici; [11]) | pest or weed control at 500 ppm (Fusarium culmorum) | pest or weed control at 500 ppm (Puccinia recondita; [11]) | pest or weed control at 100 ppm (Venturia inaequalis) | chromatographic logP [3, 16] | pest or weed control at 500 ppm (Sphaerotheca fuliginea; [17]) | pest or weed control at 500 ppm (Alternaria brassicae; [20]) | pest or weed control at 500 ppm (Fusarium graminearum) | also measured
1 | C#Cc1cncn1CC(O)(Cc1ccccc1F)C1(Cl)CC1 (stereo not shown) [Example I-36] | 90 to 100% | 90 to 100% | 90 to 100% | 90 to 100% | 90 to 100% | 80 to 89% | 90 to 100% | 90 to 100% | 90 to 100% | 90 to 100% | 80 to 89% | 90 to 100% | 90 to 100% | 1.89 | 90 to 100% | – | – | pest or weed control at 100 ppm (Pyrenophora teres; read-out: Efficacy in %): 57%; pest or weed control at 500 ppm (Pyrenophora teres; [5]): 93%; pest or weed control at 100 ppm (Uromyces appendiculatus; [7]): 100%; pest or weed control at 500 ppm (Uromyces appendiculatus; [8]): 100%; pest or weed control at 100 ppm (Botrytis cinerea; read-out: Efficacy in %): 100%; pest or weed control at 500 ppm (Botrytis cinerea; [10]): 100%; pest or weed control at 100 ppm (Septoria tritici; [12]): 83%; pest or weed control at 500 ppm (Septoria tritici; [13]): 75%; pest or weed control at 100 ppm (Puccinia recondita; [14]): 89%; pest or weed control at 500 ppm (Puccinia recondita; [15]): 94%; pest or weed control at 100 ppm (Sphaerotheca fuliginea; [18]): 100%; pest or weed control at 500 ppm (Sphaerotheca fuliginea; [19]): 100%
2 | OC(Cc1ccccc1Cl)(Cn1cncc1Cl)C1(Cl)CC1 (stereo not shown) [Example I-02] | 70 to 79% | – | – | 90 to 100% | 90 to 100% | 90 to 100% | 90 to 100% | 90 to 100% | 90 to 100% | 90 to 100% | 70 to 79% | 80 to 89% | – | 2.32 | 90 to 100% | 90 to 100% | 80 to 89% | chromatographic logP ([3]; method [c]: LC-UV, 0.1% phosphoric acid and acetonitrile as eluent): 2
3 | OC(Cc1ccccc1Cl)(Cn1cncc1Br)C1(Cl)CC1 (stereo not shown) [Example I-04] | 90 to 100% | 90 to 100% | 90 to 100% | 90 to 100% | 90 to 100% | 90 to 100% | 90 to 100% | 90 to 100% | 90 to 100% | 90 to 100% | – | 90 to 100% | 90 to 100% | 2.27 | 90 to 100% | 70 to 79% | 70 to 79% | pest or weed control at 100 ppm (Pyrenophora teres; read-out: Efficacy in %): 71%; pest or weed control at 500 ppm (Pyrenophora teres; [5]): 93%; pest or weed control at 100 ppm (Alternaria brassicae; Example R1, rate of application 100 ppm, read-out: Efficacy in %): 20%; pest or weed control at 500 ppm (Alternaria brassicae; Example R1, rate of application 500 ppm, read-out: Efficacy in %): 70%; pest or weed control at 100 ppm (Uromyces appendiculatus; [7]): 100%; pest or weed control at 500 ppm (Uromyces appendiculatus; [8]): 100%; pest or weed control at 100 ppm (Botrytis cinerea; read-out: Efficacy in %): 90%; pest or weed control at 500 ppm (Botrytis cinerea; [10]): 100%; pest or weed control at 100 ppm (Septoria tritici; [12]): 97%; pest or weed control at 500 ppm (Septoria tritici; [13]): 100%; pest or weed control at 100 ppm (Puccinia recondita; [14]): 88%; pest or weed control at 500 ppm (Puccinia recondita; [15]): 94%; pest or weed control at 100 ppm (Sphaerotheca fuliginea; [18]): 100%; pest or weed control at 500 ppm (Sphaerotheca fuliginea; [19]): 100%
4 | OC(Cc1ccc(F)cc1Cl)(Cn1cncc1Cl)C1(Cl)CC1 (stereo not shown) [Example I-08] | 70 to 79% | 90 to 100% | 90 to 100% | 80 to 89% | 90 to 100% | 90 to 100% | 90 to 100% | 90 to 100% | 90 to 100% | 90 to 100% | – | 90 to 100% | 90 to 100% | 2.47 | 90 to 100% | – | 70 to 79% | –
5 | N#Cc1cncn1CC(O)(Cc1cccnc1Cl)C1(Cl)CC1 (stereo not shown) [Example I-26] | 80 to 89% | 80 to 89% | 70 to 79% | – | 90 to 100% | 70 to 79% | 90 to 100% | 90 to 100% | – | 90 to 100% | 90 to 100% | 90 to 100% | 90 to 100% | 2.01 | 90 to 100% | – | – | –
6 | N#Cc1cncn1CC(O)(Cc1ccccc1F)C1(F)CC1 (stereo not shown) [Example I-99] | 80 to 89% | 90 to 100% | 90 to 100% | 90 to 100% | 90 to 100% | 90 to 100% | 90 to 100% | 90 to 100% | 90 to 100% | 90 to 100% | – | 90 to 100% | 80 to 89% | 2.01 | 90 to 100% | 80 to 89% | 90 to 100% | –
7 | N#Cc1cncn1CC(O)(Cc1cccc(F)c1F)C1(Cl)CC1 (stereo not shown) [Example I-146] | 70 to 79% | 90 to 100% | 90 to 100% | 90 to 100% | 90 to 100% | 90 to 100% | 90 to 100% | 90 to 100% | 90 to 100% | 90 to 100% | – | 90 to 100% | 90 to 100% | 2.75 | 90 to 100% | – | 90 to 100% | –
8 | C#Cc1cncn1CC(O)(Cc1ccccc1Cl)C1(Cl)CC1 (stereo not shown) [Example I-38] | 90 to 100% | 90 to 100% | 90 to 100% | 80 to 89% | 90 to 100% | 80 to 89% | 90 to 100% | 90 to 100% | 90 to 100% | 90 to 100% | 80 to 89% | 80 to 89% | 90 to 100% | 2.09 | 90 to 100% | – | – | –
9 | N#Cc1cncn1CC(O)(Cc1ccc(F)cc1F)C1(F)CC1 (stereo not shown) [Example I-97] | 70 to 79% | 80 to 89% | 90 to 100% | 80 to 89% | 90 to 100% | – | 90 to 100% | 90 to 100% | – | 90 to 100% | 90 to 100% | 90 to 100% | 80 to 89% | 2.39 | 90 to 100% | – | 90 to 100% | –
